Measurements published in US7820623B2 (priority 2006, dated 2010).
Bridge positions count the residues as written; N and C are the ends. Square brackets hold non-standard residues; d marks the D form. Peptide text beside a SMILES is read from it. 1Nal = N[C@@H](Cc1cccc2ccccc12)C(=O)O

Tests used:
[1] = test system: thapsigargin-induced IFN-g production in human whole blood; format: cell-based; details: read-out: Analogue Activity (IC50) WB/IFNg
[2] = test system: thapsigargin-induced IL-2 production in human whole blood; details: read-out: Analogue Activity (IC50) WB/IL-2

| Compound | IC50 [1] [nM] | IC50 [2] [nM] |
| --- | --- | --- |
| CC[C@H](C)[C@@H]1NC(=O)[C@H](CCCCN)NC(=O)[C@@H](NC(=O)[C@H](Cc2cccc3ccccc23)NC(=O)[C@@H](NC(=O)[C@H](CC(N)=O)NC(=O)[C@@H](NC(=O)[C@@H](NC(=O)[C@@H](NC(=O)CN)C(C)C)[C@@H](C)CC)[C@@H](C)CC)C(C)C)CSSC[C@@H]2NC(=O)[C@H](CCCCN)NC(=O)CNC(=O)[C@H](Cc3ccccc3)NC(=O)[C@H](CCCNC(=N)N)NC(=O)[C@H](CCSC)NC(=O)CNC(=O)[C@H](C)NC(=O)[C@H](CCCCN)NC(=O)[C@H](CCCCN)NC(=O)[C@@H]3CSSC[C@@H](C(=O)N[C@H](C(=O)N4CCC[C@H]4C(=O)N[C@@H](CCCCN)C(=O)O)[C@@H](C)O)NC(=O)[C@H](Cc4c[nH]cn4)NC(=O)[C@H](CSSC[C@H](NC(=O)[C@H](CCC(N)=O)NC(=O)[C@H](CCCNC(=N)N)NC(=O)[C@H](CO)NC1=O)C(=O)N[C@@H](CC(C)C)C(=O)N[C@@H](CCC(=O)O)C(=O)N1CCC[C@H]1C(=O)N3)NC(=O)[C@H](CCCCN)NC(=O)CNC(=O)[C@H](CC(N)=O)NC(=O)[C@H](CCSC)NC2=O [K7Nal] (H-GVIINV[1Nal]CKISRQCLEPCKKAGMRFGKCMNGKCHCTPK-OH; disulfide 8-28, 14-33, 18-35) | 0.246 | 0.222 |
| CC[C@H](C)[C@@H]1NC(=O)[C@H](CCCCN)NC(=O)[C@@H](NC(=O)[C@H](CCCNC(=N)N)NC(=O)[C@@H](NC(=O)[C@H](CC(N)=O)NC(=O)[C@@H](NC(=O)[C@@H](NC(=O)[C@@H](NC(=O)CN)C(C)C)[C@@H](C)CC)[C@@H](C)CC)C(C)C)CSSC[C@@H]2NC(=O)[C@H](CCCCN)NC(=O)CNC(=O)[C@H](Cc3ccccc3)NC(=O)[C@H](CCCNC(=N)N)NC(=O)[C@H](CCSC)NC(=O)CNC(=O)[C@H](C)NC(=O)[C@H](CCCCN)NC(=O)[C@H](CCCCN)NC(=O)[C@@H]3CSSC[C@@H](C(=O)N[C@H](C(=O)N4CCC[C@H]4C(=O)N[C@@H](CCCCN)C(=O)O)[C@@H](C)O)NC(=O)[C@H](Cc4c[nH]cn4)NC(=O)[C@H](CSSC[C@H](NC(=O)[C@H](CCC(N)=O)NC(=O)[C@H](CCCNC(=N)N)NC(=O)[C@H](CO)NC1=O)C(=O)N[C@@H](CC(C)C)C(=O)N[C@@H](CCC(=O)O)C(=O)N1CCC[C@H]1C(=O)N3)NC(=O)[C@H](CCCCN)NC(=O)CNC(=O)[C@H](CC(N)=O)NC(=O)[C@H](CCSC)NC2=O [K7R] (H-GVIINVRCKISRQCLEPCKKAGMRFGKCMNGKCHCTPK-OH; disulfide 8-28, 14-33, 18-35) | 0.071 | 0.078 |
| CC[C@H](C)[C@@H]1NC(=O)[C@H](C)NC(=O)[C@@H](NC(=O)[C@H](CCCCN)NC(=O)[C@@H](NC(=O)[C@H](CC(N)=O)NC(=O)[C@@H](NC(=O)[C@@H](NC(=O)[C@@H](NC(=O)CN)C(C)C)[C@@H](C)CC)[C@@H](C)CC)C(C)C)CSSC[C@@H]2NC(=O)[C@H](CCCCN)NC(=O)CNC(=O)[C@H](Cc3ccccc3)NC(=O)[C@H](CCCNC(=N)N)NC(=O)[C@H](CCSC)NC(=O)CNC(=O)[C@H](C)NC(=O)[C@H](CCCCN)NC(=O)[C@H](CCCCN)NC(=O)[C@@H]3CSSC[C@@H](C(=O)N[C@H](C(=O)N4CCC[C@H]4C(=O)N[C@@H](CCCCN)C(=O)O)[C@@H](C)O)NC(=O)[C@H](Cc4c[nH]cn4)NC(=O)[C@H](CSSC[C@H](NC(=O)[C@H](CCC(N)=O)NC(=O)[C@H](CCCNC(=N)N)NC(=O)[C@H](CO)NC1=O)C(=O)N[C@@H](CC(C)C)C(=O)N[C@@H](CCC(=O)O)C(=O)N1CCC[C@H]1C(=O)N3)NC(=O)[C@H](CCCCN)NC(=O)CNC(=O)[C@H](CC(N)=O)NC(=O)[C@H](CCSC)NC2=O [K9A] (H-GVIINVKCAISRQCLEPCKKAGMRFGKCMNGKCHCTPK-OH; disulfide 8-28, 14-33, 18-35) | 0.0711 | 0.0796 |
| CC[C@H](C)[C@@H]1NC(=O)[C@H](CCC(=O)O)NC(=O)[C@@H](NC(=O)[C@H](CCCCN)NC(=O)[C@@H](NC(=O)[C@H](CC(N)=O)NC(=O)[C@@H](NC(=O)[C@@H](NC(=O)[C@@H](NC(=O)CN)C(C)C)[C@@H](C)CC)[C@@H](C)CC)C(C)C)CSSC[C@@H]2NC(=O)[C@H](CCCCN)NC(=O)CNC(=O)[C@H](Cc3ccccc3)NC(=O)[C@H](CCCNC(=N)N)NC(=O)[C@H](CCSC)NC(=O)CNC(=O)[C@H](C)NC(=O)[C@H](CCCCN)NC(=O)[C@H](CCCCN)NC(=O)[C@@H]3CSSC[C@@H](C(=O)N[C@H](C(=O)N4CCC[C@H]4C(=O)N[C@@H](CCCCN)C(=O)O)[C@@H](C)O)NC(=O)[C@H](Cc4c[nH]cn4)NC(=O)[C@H](CSSC[C@H](NC(=O)[C@H](CCC(N)=O)NC(=O)[C@H](CCCNC(=N)N)NC(=O)[C@H](CO)NC1=O)C(=O)N[C@@H](CC(C)C)C(=O)N[C@@H](CCC(=O)O)C(=O)N1CCC[C@H]1C(=O)N3)NC(=O)[C@H](CCCCN)NC(=O)CNC(=O)[C@H](CC(N)=O)NC(=O)[C@H](CCSC)NC2=O [K9E] (H-GVIINVKCEISRQCLEPCKKAGMRFGKCMNGKCHCTPK-OH; disulfide 8-28, 14-33, 18-35) | 0.171 | 0.179 |
| CC[C@H](C)[C@@H]1NC(=O)[C@H](Cc2cccc3ccccc23)NC(=O)[C@@H](NC(=O)[C@H](CCCCN)NC(=O)[C@@H](NC(=O)[C@H](CC(N)=O)NC(=O)[C@@H](NC(=O)[C@@H](NC(=O)[C@@H](NC(=O)CN)C(C)C)[C@@H](C)CC)[C@@H](C)CC)C(C)C)CSSC[C@@H]2NC(=O)[C@H](CCCCN)NC(=O)CNC(=O)[C@H](Cc3ccccc3)NC(=O)[C@H](CCCNC(=N)N)NC(=O)[C@H](CCSC)NC(=O)CNC(=O)[C@H](C)NC(=O)[C@H](CCCCN)NC(=O)[C@H](CCCCN)NC(=O)[C@@H]3CSSC[C@@H](C(=O)N[C@H](C(=O)N4CCC[C@H]4C(=O)N[C@@H](CCCCN)C(=O)O)[C@@H](C)O)NC(=O)[C@H](Cc4c[nH]cn4)NC(=O)[C@H](CSSC[C@H](NC(=O)[C@H](CCC(N)=O)NC(=O)[C@H](CCCNC(=N)N)NC(=O)[C@H](CO)NC1=O)C(=O)N[C@@H](CC(C)C)C(=O)N[C@@H](CCC(=O)O)C(=O)N1CCC[C@H]1C(=O)N3)NC(=O)[C@H](CCCCN)NC(=O)CNC(=O)[C@H](CC(N)=O)NC(=O)[C@H](CCSC)NC2=O [K9Nal] (H-GVIINVKC[1Nal]ISRQCLEPCKKAGMRFGKCMNGKCHCTPK-OH; disulfide 8-28, 14-33, 18-35) | 1.22 | 1.07 |
| CC[C@H](C)[C@@H]1NC(=O)[C@H](CCCNC(=N)N)NC(=O)[C@@H](NC(=O)[C@H](CCCCN)NC(=O)[C@@H](NC(=O)[C@H](CC(N)=O)NC(=O)[C@@H](NC(=O)[C@@H](NC(=O)[C@@H](NC(=O)CN)C(C)C)[C@@H](C)CC)[C@@H](C)CC)C(C)C)CSSC[C@@H]2NC(=O)[C@H](CCCCN)NC(=O)CNC(=O)[C@H](Cc3ccccc3)NC(=O)[C@H](CCCNC(=N)N)NC(=O)[C@H](CCSC)NC(=O)CNC(=O)[C@H](C)NC(=O)[C@H](CCCCN)NC(=O)[C@H](CCCCN)NC(=O)[C@@H]3CSSC[C@@H](C(=O)N[C@H](C(=O)N4CCC[C@H]4C(=O)N[C@@H](CCCCN)C(=O)O)[C@@H](C)O)NC(=O)[C@H](Cc4c[nH]cn4)NC(=O)[C@H](CSSC[C@H](NC(=O)[C@H](CCC(N)=O)NC(=O)[C@H](CCCNC(=N)N)NC(=O)[C@H](CO)NC1=O)C(=O)N[C@@H](CC(C)C)C(=O)N[C@@H](CCC(=O)O)C(=O)N1CCC[C@H]1C(=O)N3)NC(=O)[C@H](CCCCN)NC(=O)CNC(=O)[C@H](CC(N)=O)NC(=O)[C@H](CCSC)NC2=O [K9R] (H-GVIINVKCRISRQCLEPCKKAGMRFGKCMNGKCHCTPK-OH; disulfide 8-28, 14-33, 18-35) | 0.077 | 0.107 |
